Reference: patent US7691858B2, “Kinase inhibitors and methods of use thereof” (TargeGen, Inc., priority 2006, dated 2010)
Where a name gives a salt, the structure may show the parent alone.

Key:
cerebral infarct = assay: Rodent model of cerebral stroke (permanent middle cerebral artery occlusion); assay type: in vivo, mice; conditions: 1 mg/kg BW IV 60 min after ligation; for % Infarct reduction: vs vehicle; for Infarct area in mm^3 (mean ± SEM): 24 hours
Experimental: A rodent model of cerebral stroke, in which the middle cerebral artery is permanently occluded, was used to determine whether test agents reduced infarct size at 24 hours.
Cerebral strokes were created in mice by permanent ligation of the middle cerebral artery using a cauterizing tool, followed 60 min later by IV injection of either vehicle alone (50% PEG400 in water) or test agents (at 1 mg/kg BW). Twenty four hours later, brains were sectioned and stained using triphenyltetrazolium chloride to delineate viable from infarcted tissue. Photographic images were then analyzed using morphometric software to calculate infarct area.

VEGF-induced edema = assay: Miles assay, VEGF as agonist; assay type: in vivo, Sprague-Dawley rats; conditions: vehicle 12; for Score with VEGF as agonist (scale of 0-12): 1.5 mg/kg, VEGF 200 ng/injection site; for Score (scale of 0-12): VEGF 200 ng/site, lower score = greater anti-edema activity
Experimental: A rodent model of vascular edema, the Miles assay, was used to screen compounds for their ability to inhibit VEGF-induced edema. […] Sprague-Dawley rats were first injected IV with vehicle alone or test agent, followed by IV injection of Evans blue dye, followed by intradermal injections of saline and VEGF (200 ng/injection site) along both shaved flanks.

myocardial infarct = assay: Rodent model of acute myocardial infarct (LAD occlusion/reperfusion); assay type: in vivo, Sprague-Dawley rats
Experimental: A rodent model of acute myocardial infarct, in which the proximal left anterior descending coronary artery (LAD) is occluded for 60 min followed by reperfusion, was used to determine whether test agents reduced infarct size at 24 hours.
Myocardial infarcts were created in Sprague-Dawley rats (200-300 g body weight) by a 60 min occlusion of the LAD followed by LAD reperfusion. […] At 24 hr post-treatment, the ischemic zone (area at-risk, AAR) was delineated by re-ligation of the LAD followed by IV injection of alkali blue dye, after which hearts were sectioned along the short axis and stained using triphenyltetrazolium chloride to delineate viable from infarcted myocardium. Photographic images were then analyzed using morphometric software to calculate infarct area as a percent of the at-risk area.
Rodent MI model: All animal studies followed current “NIH Guidelines for the Use of Laboratory Animals” and were performed according to IACUC-approved protocols. Sprague-Dawley rats (275-300 g) were anesthetized using inhaled isoflurane after which chest walls were shaved and swabbed with iodine. Animals were then intubated and maintained on 2% isoflurane (delivered in 30% O2/70% N2), with optimal respiratory rate and stroke volumes set by a volume-controlled safety ventilator (Inspira Advanced Safety Ventilator; Harvard Apparatus, Holliston, Mass.). Body temperatures were maintained at 35-37° C. using heating pads and five-lead electrocardiograms established. For each animal, a left thoracotomy was performed at the third intercostal space, the heart was exposed and a suture snare tightened around the LAD at the point it appeared from beneath the left atrium. Ischemia was confirmed from blanching of the left ventricle (LV) as well as changes in ECG patterns. After the desired period of occlusion (60 min in the standard model), the suture snare was loosened to allow complete reperfusion (but retained in place using shallow sutures) and the chest closed in layers. […].
For infarct size determination, LAD occlusion was repeated on each animal 24 hr after the initial occlusion. The ischemic zone (area-at-risk or AAR) was then delineated by i.v. injection of Evans blue dye (5 ml of a 10% saline solution containing 100 U/ml sodium heparin). The heart was explanted, atria and right ventricle trimmed free, and the LV (septal and free walls) frozen at −20° C. to induce rigor. After thawing on ice, the LV was subdivided into six 2 mm thick sections along the short axis using a metal form to guide dissection. Heart sections were stained for 20 min in 37° C. triphenyltetrazolium chloride (TTC, 2% in 0.04 M K2HPO4/0.17 M sucrose) to delineate viable from infarcted myocardium, fixed for 20 min in 10% formalin, then rinsed in saline. For each section, photographs were taken of both anterior and posterior surfaces and these images analyzed (by personnel blinded as to treatment identity) using a morphometric software package (Image Pro Plus; Media Cybernetics, Silver Spring, Md.). The following areas were calculated, based on their differing pixel densities: non-ischemic zone (Evans blue-stained), viable-but-ischemic zone (free of Evans blue but TTC-stained), and infarct-within-ischemic zone (free of both Evans blue and TTC stain). Area values for anterior and posterior views were averaged, and these values used to calculate the following AAR=Viable-but-ischemic Area+Infarct Area Equation 1 Total LV Area=AAR+Non-ischemic Area Equation 2

[1] = biological target: T1, human p120γ subunit of PI3K (Homo sapiens, UniProt P48736); assay: PI3K enzymatic activity at two concentrations (Upstate Group); assay type: biochemical; conditions: 100% = no inhibition, 0% = complete inhibition
T1 construct: purchased Upstate Group, Charlottesville, Va; (contract assay)
T1 sequence (P48736 whole entry): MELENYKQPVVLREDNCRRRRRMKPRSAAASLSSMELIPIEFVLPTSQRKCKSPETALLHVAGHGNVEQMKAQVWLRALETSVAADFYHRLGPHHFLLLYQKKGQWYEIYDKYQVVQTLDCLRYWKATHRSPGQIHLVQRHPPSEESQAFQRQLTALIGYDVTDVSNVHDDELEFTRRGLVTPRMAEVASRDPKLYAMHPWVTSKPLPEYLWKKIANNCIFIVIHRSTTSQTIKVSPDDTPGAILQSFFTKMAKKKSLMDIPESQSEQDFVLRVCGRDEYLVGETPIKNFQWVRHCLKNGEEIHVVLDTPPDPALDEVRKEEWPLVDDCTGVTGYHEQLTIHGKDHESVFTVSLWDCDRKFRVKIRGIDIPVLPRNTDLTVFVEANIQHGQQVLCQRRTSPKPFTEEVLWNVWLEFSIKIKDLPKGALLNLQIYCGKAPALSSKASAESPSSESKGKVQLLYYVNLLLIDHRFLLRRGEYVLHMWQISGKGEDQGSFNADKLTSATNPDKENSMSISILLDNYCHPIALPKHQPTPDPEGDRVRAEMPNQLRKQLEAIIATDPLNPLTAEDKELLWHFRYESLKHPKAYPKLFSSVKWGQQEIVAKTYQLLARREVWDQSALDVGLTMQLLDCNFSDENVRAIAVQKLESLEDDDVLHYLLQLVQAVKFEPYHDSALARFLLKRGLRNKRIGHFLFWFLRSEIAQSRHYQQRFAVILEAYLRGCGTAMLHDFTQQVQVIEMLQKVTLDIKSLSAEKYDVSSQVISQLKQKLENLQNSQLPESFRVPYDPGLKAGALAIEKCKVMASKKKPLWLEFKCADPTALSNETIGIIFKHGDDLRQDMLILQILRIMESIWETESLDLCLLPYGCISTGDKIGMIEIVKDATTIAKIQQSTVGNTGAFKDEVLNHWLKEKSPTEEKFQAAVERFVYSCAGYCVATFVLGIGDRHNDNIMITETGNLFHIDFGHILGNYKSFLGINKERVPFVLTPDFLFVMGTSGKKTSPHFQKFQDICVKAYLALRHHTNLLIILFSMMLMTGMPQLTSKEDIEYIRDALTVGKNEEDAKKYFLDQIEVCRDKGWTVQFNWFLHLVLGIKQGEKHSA
Experimental: The ability of compounds to inhibit the activity of PI3K kinase was determined using biochemical assays. In a first assay, compounds were tested at two concentrations (0.5 and 5 μM) for their ability to inhibit enzymatic activity of the human p120γ subunit of PI3K (the assay being performed under contract by Upstate Group, Charlottesville, Va.).

histamine-induced edema = assay: Miles assay, histamine as agonist; assay type: in vivo, Sprague-Dawley rats; conditions: 1.5 mg/kg; histamine 10 μg/injection site; vehicle 12
Experimental: Sprague-Dawley rats were first injected IV with vehicle alone or test agent, followed by IV injection of Evans blue dye, followed by intradermal injections of saline and VEGF (200 ng/injection site) along both shaved flanks. […] The ability of test agents to influence edema induced by agonists other than VEGF was also tested. Compounds cited in this application inhibited edema formation induced using histamine as an agonist, for example, as shown below. The ability of test agent to influence vascular edema was tested as above, except that the ability to block edema was tested using either VEGF or histamine as the agonist (200 ng and 10 μg/injection site, respectively).

[2] = 1.5 mg/kg BW IV at 90 min post-reperfusion, 24 hr
[3] = 1.5 mg/kg BW IV at 90 min post-reperfusion, vs vehicle

Compound: Nc1ncnc2nc(-c3ccccn3)c(-c3ccccn3)nc12 [6,7-Di-pyridin-2-yl-pteridin-4-ylamine]
- % Infarct reduction (cerebral infarct): Not significant

Compound: O=C(Nc1cc2ccccc2[nH]1)c1cc(O)c(O)c(O)c1 [3,4,5-Trihydroxy-N-(1H-indol-2-yl)-benzamide]
- Score with VEGF as agonist (scale of 0-12) (VEGF-induced edema): 5

Compound: Cl.Nc1nc(N)c2nc(-c3ccc(O)c(O)c3)c(-c3ccc(O)c(O)c3)nc2n1 [6,7-bis(3,4-dihydroxyphenyl)-pteridine-2,4,-diamine, hydrochloride salt]
- Infarct (% AAR, mean ± SEM) (myocardial infarct; [2]): 36.3 ± 6.3 % AAR
- % Infarct reduction (myocardial infarct; [3]): 33%

Compound: Oc1ncnc2nc(-c3ccccc3)c(-c3ccccc3)nc12 [6,7-Diphenyl-pteridin-4-ol]
- Score with VEGF as agonist (scale of 0-12) (VEGF-induced edema): 3

Compound: Nc1cncc2nc(-c3ccc(O)c(O)c3)c(-c3ccc(O)c(O)c3)nc12 [2,3-(3,4-Dihydroxyphenyl)-pyrido[3,4-b]pyrazin-8-ylamine]
- Score (scale of 0-12) (VEGF-induced edema; 0.01 mg/kg IV): 6

Compound: Nc1nc(N)c2nc(CNCc3ccc(O)c(O)c3)cnc2n1 [4-{[(2,4-Diamino-pteridin-6-ylmethyl)-amino]-methyl}-benzene-1,2-diol]
- Score (scale of 0-12) (VEGF-induced edema; 5 mg/kg IV): 4

Compound: Nc1cncc2nc(-c3cccc(O)c3)c(-c3cccc(O)c3)nc12 [3,3′-(8-aminopyrido[3,4-]pyrazine-2,3-diyl)diphenol]
- Percent Control Value at 0.5 μM ([1]; 0.5 μM): 101%
- Percent Control Value at 5 μM ([1]; 5 μM): 90%

Compound: Nc1ncnc2nc(-c3ccc(O)cc3)c(-c3ccc(O)cc3)nc12.O=S(=O)(O)O [6,7-bis(4-hydroxyphenyl)-pteridin-4-ylamine sulfate salt]
- Score with VEGF as agonist (scale of 0-12) (VEGF-induced edema): 4
- Score with histamine as agonist (scale of 0-12) (histamine-induced edema): 3
- Infarct (% AAR, mean ± SEM) (myocardial infarct; [2]): 60.6 ± 1.8 % AAR
- % Infarct reduction (myocardial infarct; [3]): 20%
- Infarct area in mm^3 (mean ± SEM) (cerebral infarct): 18.3 ± 2.6 mm^3
- % Infarct reduction (cerebral infarct): 53%

Compound: O=C(Nc1ccccc1-c1cc2ccccc2[nH]1)c1cccnc1C(=O)O [3-[2-(1H-Indol-2-yl)-phenylcarbamoyl]-pyridine-2-carboxylic acid]
- Score (scale of 0-12) (VEGF-induced edema; 0.5 mg/kg IV): 5

Compound: O=C(Nc1ccccc1-c1cc2ccccc2[nH]1)c1cc(O)c(O)c(O)c1 [3,4,5-Trihydroxy-N-[2-(1H-indol-2-yl)-phenyl]-benzamide]
- Score with VEGF as agonist (scale of 0-12) (VEGF-induced edema): 4

Compound: Cl.Cl.Nc1nc(N)c2nc(-c3cccc(O)c3)c(-c3cccc(O)c3)nc2n1 [3-[2,4-diamino-6-(3-hydroxyphenyl)pteridin-7-yl] phenol dihydrochloride salt]
- Score (scale of 0-12) (VEGF-induced edema; 0.01 mg/kg IV): 3
- Score (scale of 0-12) (VEGF-induced edema; 0.1 mg/kg IV): 4
- Score (scale of 0-12) (VEGF-induced edema; 1 mg/kg IV): 4
- Infarct (% AAR, mean ± SEM) (myocardial infarct; 0.1 mg/kg BW IV at 90 min post-reperfusion, 24 hr): 37.7 ± 5.8 % AAR
- % Infarct reduction (myocardial infarct; 0.1 mg/kg BW IV at 90 min post-reperfusion, vs vehicle): 30%
- % Infarct reduction (myocardial infarct; 0.1 mg/kg, administration 60 and 240 min post-occlusion): 55%
- Infarct (% AAR, mean ± SEM) (myocardial infarct; 0.1 mg/kg, administration 60 and 240 min post-occlusion, vehicle 54.0 ± 2.9): 24.2 ± 4.9 % AAR
- % Infarct reduction (myocardial infarct; 0.1 mg/kg, administration 60 min post-occlusion): 60%
- Infarct (% AAR, mean ± SEM) (myocardial infarct; 0.1 mg/kg, administration 60 min post-occlusion, vehicle 54.0 ± 2.9): 21.6 ± 5.7 % AAR
- % Infarct reduction (myocardial infarct; 0.1 mg/kg, administration 120 min post-occlusion): 65%
- Infarct (% AAR, mean ± SEM) (myocardial infarct; 0.1 mg/kg, administration 120 min post-occlusion, vehicle 54.0 ± 2.9): 18.8 ± 5.6 % AAR
- % Infarct reduction (myocardial infarct; 0.1 mg/kg, administration 240 min post-occlusion): 65%
- Infarct (% AAR, mean ± SEM) (myocardial infarct; 0.1 mg/kg, administration 240 min post-occlusion, vehicle 54.0 ± 2.9): 19.1 ± 4.0 % AAR
- Infarct (% AAR, mean ± SEM) (myocardial infarct; 1.0 mg/kg BW IV at 90 min post-reperfusion, 24 hr): 46.4 ± 2.6 % AAR
- % Infarct reduction (myocardial infarct; 1.0 mg/kg BW IV at 90 min post-reperfusion, vs vehicle): Not significant

Compound: Cl.Nc1ncnc2nc(-c3ccc(O)c(O)c3)c(-c3ccc(O)c(O)c3)nc12 [4-[4-amino-6-(3,4-dihydroxyphenyl)pteridin-7-yl]benzene-1,2-diol chloride salt]
- Score (scale of 0-12) (VEGF-induced edema; 0.01 mg/kg IV): 6
- Score (scale of 0-12) (VEGF-induced edema; 0.1 mg/kg IV): 3
- Score (scale of 0-12) (VEGF-induced edema; 1 mg/kg IV): 5

Compound: CN(C)S(=O)(=O)c1ccc2c(c1)/C(=C/c1cc3c([nH]1)CCCC3)C(=O)N2 [SU6656, reference compound]
- % Infarct reduction (cerebral infarct): Not significant

Compound: O=C(CCc1ccc(O)cc1)Nc1ccccc1-c1cc2ccccc2[nH]1 [3-(4-Hydroxy-phenyl)-N-[2-(1H-indol-2-yl)-phenyl]-propionamide]
- Score (scale of 0-12) (VEGF-induced edema; 1.5 mg/kg IV): 2

Compound: Nc1nc(N)c2nc(CNCc3ccccn3)cnc2n1 [6-{[(Pyridin-2-ylmethyl)-amino]-methyl}-pteridine-2,4-diamine]
- Score (scale of 0-12) (VEGF-induced edema; 0.1 mg/kg IV): 4

Compound: Cc1ccc(-c2nn(C(C)(C)C)c3ncnc(N)c23)cc1 [PP1, reference compound]
- Infarct area in mm^3 (mean ± SEM) (cerebral infarct): 35.4 ± 6.4 mm^3
- % Infarct reduction (cerebral infarct): Not significant

Compound: Nc1nc(N)c2nc(-c3ccc(O)cc3)cnc2n1 [4-(2,4-Diamino-pteridin-6-yl)-phenol (sulfate salt)]
- Score (scale of 0-12) (VEGF-induced edema; 5 mg/kg IV): 2
